{"source": "patent US20030226169A1", "about": "“DNA sequences encoding antifungal proteins” (priority 1995, published 2003)", "key": {"yeast": {"test_system": "yeast", "settings": "at concentrations as high as 500 μg/ml; cited from earlier work"}, "[1]": {"test_system": "Botrytis cinerea (MUCL 30158)", "assay": "Antifungal growth inhibition microplate assay (photospectrometry)", "assay_type": "cell-based", "settings": "Rs-AFP2 15-mer MPS peptides; one test", "how_it_was_run": "(§1)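 Spores (2×10^4/ml) in half-strength potato dextrose broth exposed to test solution, incubated in the dark at room temperature for about 72 h (96 h for V. dahliae). Growth by OD595 minus 30-min reading; IC50 is 50% and MIC 100% growth inhibition.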"}, "[2]": {"test_system": "Alternaria brassicicola (MUCL 20297)", "assay": "Antifungal growth inhibition microplate assay (photospectrometry)", "assay_type": "cell-based", "settings": "Rs-AFP2 15-mer MPS peptides; one test", "how_it_was_run": "as §1"}, "[3]": {"test_system": "Verticillium dahliae (MUCL 19210)", "assay": "Antifungal growth inhibition microplate assay (photospectrometry)", "assay_type": "cell-based", "settings": "Rs-AFP2 15-mer MPS peptides; one test; 96 hours", "how_it_was_run": "as §1"}, "[4]": {"test_system": "Fusarium culmorum (IMI 180420)", "assay": "Antifungal growth inhibition microplate assay (photospectrometry)", "assay_type": "cell-based", "how_it_was_run": "as §1"}, "[5]": {"test_system": "Ascophyta pisi (MUCL 30164)", "assay_type": "cell-based", "settings": "Rs-AFP2 15-mer MPS peptides; one test", "description": "The following fungal strains were used: Alternaria brassicicola (MUCL 20297), Ascophyta pisi (MUCL 30164), Botrytis cinerea (MUCL 30158), Fusarium culmorum (IMI 180420) and Verticillium dahliae (MUCL 19210).\nFungi were grown on six cereal agar plates at room temperature and under white fluorescent light except for F culmorum and V dahliae which were grown in the dark. The duration of the spore harvest varied between 10 and 25 days depending on the strain. Spores were collected as follows. Five to ten ml of sterile milli-Q water was poured into each dish and the surface of the agar was rubbed with a sterile spatula to obtain a suspension containing mycelium and spores. This suspension was filtered through a sterile glasswool-plugged funnel and the filtrate containing the spores was collected in a sterile polypropylene centrifuge tube. The A brassicicola spores were suspended in sterile 0.1 Tween 20 (Merk, 822184) due to their hydrophobic nature. The spore suspensions were then washed twice by centrifugation at 2,400×g for 15 minutes and resuspended in a small volume of steril milli-Q water. The spore density was determined in a counting chamber and then adjusted to 4×10^7 spores per ml. Aliquots of the spore suspension were transferred to sterile microtubes and an equal volume of sterile 50% glycerol (Merck, 4091) was added to each tube so that a final spore suspension of 2×10^7 spores per ml in 25% glycerol was obtained. After careful mixing of the stock, the spore suspension was transferred in 100 μl aliquots to sterile microtubes and stored at −80° C.\nAntifungal activity was measured by photospectrometry as described by Broekaert et al, (1990, FEMS Microbiol Lett, 69:55-60). Tests were performed by adding 20 μl of test solution and 80 μl of a fungal spore suspension (2×10^4 spores/ml) per well in a sterile flat-bottom 96-well microtiterplate. The spore suspension was prepared by diluting the stock spore suspension ([…] in 25% glycerol) 1:1000 in half-strength potato dextrose broth. A positive growth control consisting of eight wells containing 20 μl of sterile milli-Q water and 80 μl of the fungal spore suspension was included in each test. The microtiterplates were incubated (with the lid on) in an aerated place at room temperature and under conditions of darkness for all test organisms.\nAfter 30 minutes of incubation (when the spores are settled on the well bottom) the optical density was measured in a microplate reader (Bio Rad 3550-UV) at 595 nm. Incubation of the microtiterplates continued until the optical density of the control microculture was between 0.250 and 0.500, which took approximately 72 hours (96 hours for V dahliae). Percentage of growth inhibition (% GI) was estimated as 100 times the ratio of the corrected absorbance of the control microculture minus the corrected absorbance of the test microculture over the corrected absorbance of the control microculture at 595 nm. The corrected absorbance values equal the absorbance at 595 nm of the culture measured after 72 or 96 hours minus the absorbance at 595 nm measured after 30 minutes.\n% GI=[(Acontrol−Atest/Acontrol]×100\nwhere Acontrol=(A72/96h−A30min)control\nThe IC50 value is defined as the concentration that gives a 50% growth inhibition after 72 or 96 hours of incubation. The minimum inhibitory concentration (MIC) corresponds to the minimum concentration that gives 100% growth inhibition after 72 or 96 hours incubation."}, "various fungi": {"test_system": "various fungi", "settings": "on various fungi; cited from earlier work"}, "[6]": {"settings": "Table 14: 18-, 19-, 20-mer peptides with C-terminal Phe49, duplo"}}, "data": [{"substance": "Rs-AFP2: antifungal protein 2 (plant defensin) from radish (Raphanus sativus) seeds; positive control (QKLCQRPSGTWSGVCGNNNACKNQCIRLEKARHGSCNYVFPAHKCICYFPC; listed as Raphanus sativus)", "values": [{"measurement": "adverse effects on yeast", "setting": "yeast", "value": "does not have adverse effects"}, {"measurement": "MIC VALUES B CINEREA", "setting": "[1]", "value": ">40", "unit": "µg/mL"}, {"measurement": "MIC VALUES A BRASSICICOLA", "setting": "[2]", "value": 10, "unit": "µg/mL"}, {"measurement": "MIC VALUES V DAHLIAE", "setting": "[3]", "value": 10, "unit": "µg/mL"}, {"measurement": "MIC VALUES F CULMORUM MPS", "setting": "[4]; Rs-AFP2 15-mer MPS peptides, medium value of five tests", "value": "5 to 10", "unit": "µg/mL"}, {"measurement": "MIC VALUES F CULMORUM Split", "setting": "[4]; Rs-AFP2 15-mer split peptides (extra C-terminal beta-alanine), dilution 500-3.9 μg/ml, duplicate, MIC approximations", "value": 10, "unit": "µg/mL"}, {"measurement": "MIC", "setting": "[4]; Table 12: Rs-AFP2 15-mer peptides, ½ PDB", "value": 3, "unit": "µg/mL"}, {"measurement": "MIC", "setting": "[4]; Table 12: ½ PDB supplemented with 1 mM CaCl2", "value": 6, "unit": "µg/mL"}, {"measurement": "MIC", "setting": "[4]; Table 12: ½ PDB supplemented with 5 mM CaCl2", "value": 6, "unit": "µg/mL"}, {"measurement": "MIC", "setting": "[4]; Table 12: ½ PDB supplemented with 10 mM KCl", "value": 3, "unit": "µg/mL"}, {"measurement": "MIC", "setting": "[4]; Table 12: ½ PDB supplemented with 50 mM KCl", "value": 3, "unit": "µg/mL"}, {"measurement": "MIC", "setting": "[4]; Table 12: ½ PDB supplemented with 50 mM KCl, 1 mM CaCl2", "value": 6, "unit": "µg/mL"}, {"measurement": "IC50 1/2 PDB", "setting": "[4]; Table 13: linear β2-β3 loop MPS peptides, 2 × 10^4 spores/ml, duplo", "value": "3.3 ± 0.0", "unit": "µg/mL"}, {"measurement": "IC50 SMF + pH5", "setting": "[4]; Table 13: linear β2-β3 loop MPS peptides, SMF+ (1 mM Ca2+, 50 mM K+) pH5, duplo", "value": "5.2 ± 1.2", "unit": "μg/ml"}, {"measurement": "IC50 SMF + pH7", "setting": "[4]; Table 13: linear β2-β3 loop MPS peptides, SMF+ (1 mM Ca2+, 50 mM K+) pH7, duplo", "value": "6.1 ± 1.3", "unit": "μg/ml"}, {"measurement": "IC50 SMF + pH5", "setting": "[4]; [6]", "value": "7.2 ± 0.6", "unit": "μg/ml"}, {"measurement": "IC50 SMF + pH7", "setting": "[4]; [6]", "value": "3.7 ± 0.6", "unit": "μg/ml"}, {"measurement": "IC50 ½ PDB", "setting": "[4]; Table 14: 18-, 19-, 20-mer peptides with C-terminal Phe49, peptides single experiment", "value": "2.5 ± 0.8", "unit": "µg/mL"}, {"measurement": "MIC VALUES A PISI", "setting": "[5]", "value": "20 to 40", "unit": "µg/mL"}, {"measurement": "activity relative to Rs-AFP1", "setting": "various fungi", "value": "two- to thirty-fold more active"}]}]}
